In patent US8795739B2, “Iron fortified food product and additive” (Magqu Co. Ltd., priority 2012, dated 2014):

System: Caco-2 cells
Test: Iron bioavailability test in the in vitro digestion/Caco-2 cell culture system (ferritin ELISA, Bradford total protein)
Format: in vitro ADME, Human
Experimental: The assay followed the guidance of Department of Health, Executive Yuan, R.O.C. (TAIWAN) and was conducted to analyze the cytotoxicity and the iron bioavailability of Fe3O4 microspheres in the in vitro digestion/Caco-2 cell culture system. The iron bioavailability from the test article could be evaluated by an in vitro system including enzymatic digestion, iron uptake and ferritin determination via an Enzyme-linked immunosorbent assay (ELISA).
• Cell line: Human colon adenocarcinoma, clone of Caco-2. BCRC 80182. • Culture medium: Minimum Essential Medium (MEM) without any additional iron, iron conc.<8 μg/L. • Culture condition: 37±1° C. with 5% C02 incubator. • EBSS/MES buffer: Earle's balanced salt solution (EBSS) ? 10 mM MES (2-[4-morpholino]-ethanesulfonic acid) buffer, pH 6.0. • MEM enrichment medium: hydrocortisone (4 mg/L) ? 10 mM PIPES (piperazine-N,N′-bis-[2-ethanesulfonic acid]) ? 1% antibiotic-antimycotic solution ? insulin (5 mg/L) ? sodium selenite (5 μg/L) ? triiodothyronine ([…]) and epidermal growth factor (2 μg//L). • Iron removal solution: 1 mM bathophenanthroline disulfonic acid (BPDS) and 5 mM sodium hydrosulfite were dissolved in the rinse solution. • Rinse solution: 140 mM NaCl ? 5 mM KCI ? 10 mM PIPES, pH 7.0. Grouping:
The test article were two sizes of Fe3O4 microspheres with an average diameter of 800 nanometer (nm) and 3000 nm, respectively. Both microspheres were placed in a buffer with a pH value ranges from 5-7. Preferably, the buffer was water or Phosphate Buffered Saline (PBS). In this experiment, the buffer was Phosphate Buffered Saline.
• The digestion of the test article: 0.5 mL of test article was dissolved in 1 mL of 1 N HCl solution, and incubated at 37±1° C. for 16 hours. The final iron concentration was 100 μM. Phosphate buffered saline was used as the negative control and treated in the same condition without the test article. • Iron bioavailability test: • i. […] Measured the absorbance at 595 nm with an ELISA reader. • ii. […] Determined by, the human ferritin enzyme immunoassay test kit. • ii. […]

Compound: O=S(=O)([O-])[O-].[Fe+2] [FeSO4]
- Tested Ferritin (Caco-2 cell lysate, 24 hours treatment, 50 μM FeSO4 (positive control)): 61.1 ± 1.6 ng/mL
- Calibrated Ferritin (ferritin calibrated by total protein, Caco-2, 24 hours, 50 μM FeSO4 (positive control)): 255.9±15.4 ng/mg protein
- Iron availability (relative to positive control, Caco-2, 24 hours, 50 μM FeSO4): 100%
